{"source": "paper PMC8018653", "about": "“Gender-based differences in brain and plasma pharmacokinetics of letrozole in sprague-dawley rats: Application of physiologically-based pharmacokinetic modeling to gain quantitative insights” (PLoS ONE, 2021)", "origin": "cited, not measured here", "test_system": "P-glycoprotein (P-gp)", "settings": "cited from earlier work"}
{"smiles": "CC(C)(C#N)c1cc(Cn2cncn2)cc(C(C)(C)C#N)c1", "note": "[anastrozole]", "values": [{"measurement": "substrate for the efflux transporter P-glycoprotein (P-gp)", "result": "substrate"}]}
